According to the NIST ThermoML archive (doi:10.1016/j.jct.2018.01.024):
Numbers after ± are expanded uncertainties.

Test: mn = molality of the nth substance listed, in mol/kg
Details: Liquid

NC(N)=O [urea] + O
mass density [kg/m3]
Details | 288.15 K | 298.15 K | 308.15 K | 323.15 K | 333.15 K
101 kPa, Vibrating tube method, m1 = 0.093 | – | 998.52 ± 0.09 | 995.45 ± 0.09 | 989.4 ± 0.09 | 984.53 ± 0.09
101 kPa, Vibrating tube method, m1 = 0.1063 | – | 998.73 ± 0.08 | 995.65 ± 0.08 | 989.59 ± 0.09 | 984.72 ± 0.09
101 kPa, Vibrating tube method, m1 = 0.141 | – | 999.27 ± 0.08 | 996.18 ± 0.08 | 990.1 ± 0.09 | 985.22 ± 0.09
101 kPa, Vibrating tube method, m1 = 0.152 | – | 999.45 ± 0.08 | 996.35 ± 0.08 | 990.26 ± 0.08 | 985.38 ± 0.09
101 kPa, Vibrating tube method, m1 = 0.1809 | – | 999.9 ± 0.08 | 996.79 ± 0.08 | 990.68 ± 0.09 | 985.79 ± 0.09
101 kPa, Vibrating tube method, m1 = 0.2423 | – | 1000.86 ± 0.08 | 997.71 ± 0.08 | 991.57 ± 0.09 | 986.66 ± 0.09
101 kPa, Vibrating tube method, m1 = 0.4362 | – | 1003.84 ± 0.08 | 1000.59 ± 0.08 | 994.33 ± 0.08 | 989.38 ± 0.09
101 kPa, Vibrating tube method, m1 = 0.5644 | – | 1005.78 ± 0.08 | 1002.47 ± 0.08 | 996.13 ± 0.08 | 991.15 ± 0.09
101 kPa, Vibrating tube method, m1 = 1.008 | – | 1012.3 ± 0.09 | 1008.78 ± 0.09 | 1002.19 ± 0.08 | 997.11 ± 0.08
101 kPa, Vibrating tube method, m1 = 1.609 | – | 1020.67 ± 0.23 | 1016.91 ± 0.23 | 1010.03 ± 0.22 | 1004.81 ± 0.22
101 kPa, Vibrating tube method, m1 = 2.505 | – | 1032.29 ± 0.22 | 1028.21 ± 0.22 | 1020.95 ± 0.21 | 1015.53 ± 0.21
101 kPa, Vibrating tube method, m1 = 3.376 | – | 1042.7 ± 0.21 | 1038.34 ± 0.2 | 1030.77 ± 0.2 | 1025.17 ± 0.2
101 kPa, Vibrating tube method, m1 = 4.33 | – | 1053.2 ± 0.2 | 1048.55 ± 0.19 | 1040.72 ± 0.19 | 1034.98 ± 0.19
101 kPa, Vibrating tube method, m1 = 5.39 | – | 1063.84 ± 0.91 | 1058.96 ± 0.89 | 1050.87 ± 0.87 | 1044.98 ± 0.86
101 kPa, Vibrating tube method, m1 = 8 | – | 1086.63 ± 0.83 | 1081.22 ± 0.81 | 1072.6 ± 0.79 | 1066.38 ± 0.78
101 kPa, Vibrating tube method, m1 = 9.9 | – | 1100.56 ± 0.68 | 1094.97 ± 0.67 | 1086.08 ± 0.65 | 1079.64 ± 0.64
101 kPa, Vibrating tube method, m1 = 12.8 | – | 1118.82 ± 0.64 | 1112.9 ± 0.63 | 1103.59 ± 0.61 | 1096.9 ± 0.61
10000 kPa, Constant-volume piezometry, m1 = 0.1809 | – | 1004.31 ± 0.19 | 1001.1 ± 0.2 | 994.94 ± 0.21 | –
10000 kPa, Constant-volume piezometry, m1 = 0.4362 | – | 1008.22 ± 0.19 | 1004.89 ± 0.2 | 998.57 ± 0.21 | –
10000 kPa, Constant-volume piezometry, m1 = 0.5644 | – | 1010.14 ± 0.19 | 1006.76 ± 0.2 | 1000.36 ± 0.21 | –
10000 kPa, Constant-volume piezometry, m1 = 1.609 | – | 1024.95 ± 0.26 | 1021.13 ± 0.27 | 1014.19 ± 0.27 | –
10000 kPa, Constant-volume piezometry, m1 = 2.505 | – | 1036.5 ± 0.26 | 1032.37 ± 0.27 | 1025.05 ± 0.28 | –
10000 kPa, Constant-volume piezometry, m1 = 3.376 | – | 1046.86 ± 0.27 | 1042.44 ± 0.27 | 1034.82 ± 0.28 | –
10000 kPa, Constant-volume piezometry, m1 = 5.39 | – | 1067.88 ± 1.1 | 1062.95 ± 1.1 | 1054.83 ± 1.1 | –
10000 kPa, Constant-volume piezometry, m1 = 8 | – | 1090.56 ± 1.1 | 1085.13 ± 1.1 | 1076.49 ± 1.1 | –
10000 kPa, Constant-volume piezometry, m1 = 10.99 | – | 1111.68 ± 1.1 | 1105.95 ± 1.1 | 1096.87 ± 1.1 | –
10000 kPa, Constant-volume piezometry, m1 = 12.8 | – | 1122.59 ± 1.1 | 1116.69 ± 1.1 | 1107.38 ± 1.1 | –
25000 kPa, Constant-volume piezometry, m1 = 0.1809 | – | 1010.8 ± 0.28 | 1007.46 ± 0.29 | 1001.22 ± 0.3 | –
25000 kPa, Constant-volume piezometry, m1 = 0.4362 | – | 1014.67 ± 0.28 | 1011.22 ± 0.29 | 1004.83 ± 0.3 | –
25000 kPa, Constant-volume piezometry, m1 = 0.5644 | – | 1016.58 ± 0.28 | 1013.08 ± 0.29 | 1006.62 ± 0.31 | –
25000 kPa, Constant-volume piezometry, m1 = 1.609 | – | 1031.23 ± 0.33 | 1027.31 ± 0.34 | 1020.35 ± 0.35 | –
25000 kPa, Constant-volume piezometry, m1 = 2.505 | – | 1042.68 ± 0.34 | 1038.45 ± 0.35 | 1031.14 ± 0.36 | –
25000 kPa, Constant-volume piezometry, m1 = 3.376 | – | 1052.93 ± 0.34 | 1048.43 ± 0.35 | 1040.83 ± 0.36 | –
25000 kPa, Constant-volume piezometry, m1 = 5.39 | – | 1073.78 ± 1.1 | 1068.78 ± 1.1 | 1060.7 ± 1.1 | –
25000 kPa, Constant-volume piezometry, m1 = 8 | – | 1096.33 ± 1.1 | 1090.83 ± 1.1 | 1082.18 ± 1.1 | –
25000 kPa, Constant-volume piezometry, m1 = 10.99 | – | 1117.29 ± 1.2 | 1111.57 ± 1.2 | 1102.45 ± 1.2 | –
25000 kPa, Constant-volume piezometry, m1 = 12.8 | – | 1128.17 ± 1.2 | 1122.24 ± 1.2 | 1112.95 ± 1.2 | –
50000 kPa, Constant-volume piezometry, m1 = 0.1809 | – | 1021.19 ± 0.48 | 1017.66 ± 0.49 | 1011.26 ± 0.5 | –
50000 kPa, Constant-volume piezometry, m1 = 0.4362 | – | 1025 ± 0.48 | 1021.35 ± 0.49 | 1014.82 ± 0.5 | –
50000 kPa, Constant-volume piezometry, m1 = 0.5644 | – | 1026.87 ± 0.48 | 1023.19 ± 0.49 | 1016.57 ± 0.5 | –
50000 kPa, Constant-volume piezometry, m1 = 1.609 | – | 1041.28 ± 0.51 | 1037.21 ± 0.52 | 1030.14 ± 0.54 | –
50000 kPa, Constant-volume piezometry, m1 = 2.505 | – | 1052.51 ± 0.52 | 1048.14 ± 0.53 | 1040.78 ± 0.54 | –
50000 kPa, Constant-volume piezometry, m1 = 3.376 | – | 1062.57 ± 0.53 | 1057.95 ± 0.54 | 1050.36 ± 0.55 | –
50000 kPa, Constant-volume piezometry, m1 = 5.39 | – | 1083.08 ± 1.2 | 1078.02 ± 1.2 | 1069.99 ± 1.2 | –
50000 kPa, Constant-volume piezometry, m1 = 8 | – | 1105.37 ± 1.2 | 1099.83 ± 1.2 | 1091.23 ± 1.2 | –
50000 kPa, Constant-volume piezometry, m1 = 10.99 | – | 1126.18 ± 1.2 | 1120.31 ± 1.2 | 1111.32 ± 1.2 | –
50000 kPa, Constant-volume piezometry, m1 = 12.8 | – | 1136.9 ± 1.3 | 1130.92 ± 1.3 | 1121.73 ± 1.3 | –
75000 kPa, Constant-volume piezometry, m1 = 0.1809 | – | 1031.09 ± 0.68 | 1027.35 ± 0.69 | 1020.8 ± 0.7 | –
75000 kPa, Constant-volume piezometry, m1 = 0.4362 | – | 1034.82 ± 0.68 | 1030.99 ± 0.69 | 1024.31 ± 0.7 | –
75000 kPa, Constant-volume piezometry, m1 = 0.5644 | – | 1036.66 ± 0.68 | 1032.8 ± 0.69 | 1026.04 ± 0.71 | –
75000 kPa, Constant-volume piezometry, m1 = 1.609 | – | 1050.81 ± 0.71 | 1046.61 ± 0.72 | 1039.38 ± 0.74 | –
75000 kPa, Constant-volume piezometry, m1 = 2.505 | – | 1061.84 ± 0.72 | 1057.37 ± 0.73 | 1049.87 ± 0.74 | –
75000 kPa, Constant-volume piezometry, m1 = 3.376 | – | 1071.73 ± 0.73 | 1067.04 ± 0.74 | 1059.32 ± 0.75 | –
75000 kPa, Constant-volume piezometry, m1 = 5.39 | – | 1091.95 ± 1.3 | 1086.84 ± 1.3 | 1078.73 ± 1.3 | –
75000 kPa, Constant-volume piezometry, m1 = 8 | – | 1113.92 ± 1.3 | 1108.4 ± 1.3 | 1099.84 ± 1.3 | –
75000 kPa, Constant-volume piezometry, m1 = 10.99 | – | 1134.57 ± 1.4 | 1128.64 ± 1.4 | 1119.74 ± 1.4 | –
75000 kPa, Constant-volume piezometry, m1 = 12.8 | – | 1145.19 ± 1.4 | 1139.16 ± 1.4 | 1130.01 ± 1.4 | –
100000 kPa, Constant-volume piezometry, m1 = 0.1809 | – | 1040.52 ± 0.89 | 1036.61 ± 0.9 | 1029.92 ± 0.91 | –
100000 kPa, Constant-volume piezometry, m1 = 0.4362 | – | 1044.19 ± 0.89 | 1040.2 ± 0.9 | 1033.37 ± 0.91 | –
100000 kPa, Constant-volume piezometry, m1 = 0.5644 | 1049.66 ± 0.88 | 1046 ± 0.89 | 1041.98 ± 0.9 | 1035.08 ± 0.91 | –
100000 kPa, Constant-volume piezometry, m1 = 1.609 | 1063.93 ± 0.91 | 1059.92 ± 0.92 | 1055.64 ± 0.93 | 1048.25 ± 0.94 | –
100000 kPa, Constant-volume piezometry, m1 = 2.505 | 1075.04 ± 0.92 | 1070.84 ± 0.93 | 1066.32 ± 0.94 | 1058.62 ± 0.95 | –
100000 kPa, Constant-volume piezometry, m1 = 3.376 | 1085.01 ± 0.93 | 1080.63 ± 0.94 | 1075.91 ± 0.95 | 1067.97 ± 0.96 | –
100000 kPa, Constant-volume piezometry, m1 = 5.39 | 1105.48 ± 1.4 | 1100.6 ± 1.4 | 1095.48 ± 1.4 | 1087.2 ± 1.4 | –
100000 kPa, Constant-volume piezometry, m1 = 8 | 1127.8 ± 1.5 | 1122.4 ± 1.5 | 1116.79 ± 1.5 | 1108.07 ± 1.5 | –
100000 kPa, Constant-volume piezometry, m1 = 10.99 | 1148.53 ± 1.5 | 1142.75 ± 1.5 | 1136.92 ± 1.5 | 1127.82 ± 1.5 | –
100000 kPa, Constant-volume piezometry, m1 = 12.8 | 1159.2 ± 1.5 | 1153.24 ± 1.5 | 1147.3 ± 1.5 | 1138.03 ± 1.5 | –
